From patent publication US8802094B2, “Method of reducing phosphate absorption by administering orally an IgY anti-intestinal sodium phosphate cotransporter type 2B antibody” (Wisconsin Alumni Research Foundation, priority 2006, dated 2014)

Test system: chicken intestinal alkaline phosphatase
Experiment: Feeding anti-intestinal alkaline phosphatase egg antibody to chicks with active vitamin D: plasma phosphorous
Assay type: in vivo, chicken (Single Comb White Leghorn chicks)
Settings: leghorn chicks, 10 days
Procedure: Single Comb White Leghorn laying hens were used for antibody production (3 hens per peptide antigen). Chicken intestinal alkaline phosphatase was purchased from Worthington. To prepare a vaccine for each hen 0.5 mg of chicken intestinal alkaline phosphatase was diluted to a final concentration of 0.5 ml PBS and mixed with 0.5 ml of Freund's complete adjuvant (first injection) or incomplete adjuvant (booster vaccination) to form a water in oil emulsification capable of holding a bead when dripped on ice water. The hen was then injected in four sites (each leg and each breast) with 0.25 ml of the vaccine emulsion intramuscularly. The booster injection in incomplete adjuvant occurred 7 days later.
In approximately 30 day lots, egg yolks from each hen were separated from whole eggs, mixed and lyophilized. Dried egg yolk powder containing the antibody was stored at room temperature until use in animal feeding studies.
The chicken model used in this study was described by Biehl and Baker, J. Nutr. 1997, 127:2054-2059 with the exception of antibodies to intestinal alkaline phosphatas. The negative control used in this study was a Pi deficient diet (Pi=inorganic phosphate which are largely mineral phosphates or phosphate from animal tissues and products such as milk and eggs), where the dietary phosphorous used was phytic phosphate. […]

For C=C1/C(=C\C=C2/CCC[C@]3(C)[C@@H]([C@H](C)CCCC(C)C)CC[C@@H]23)C[C@@H](O)C[C@@H]1O [Active vitamin D, 1α-hydroxyvitamin D3], which “effect on plasma phosphorous levels (in words)” value (Pi deficient diet, antibody vs active vitamin D alone, vitamin D vs negative control) is on record?
The value was “increased blood phosphorous levels in comparison to the negative control”.

What about the “Plasma phosphate” value (Pi deficient phytic phosphorous diet, 1α-hydroxyvitamin D3 20 μg/kg diet alone or plus antibody 1 g/kg diet) of the same compound?
The value was 6.70 mg/dL.
